The target in test [1] is T1, cloned recombinant human HDAC-1 (Homo sapiens, UniProt Q13547).
T1 construct: made in house; host or cells: Baculovirus insect cell expression system
Nature of the test: Human HDAC-1 enzyme inhibition, Assay 1 ([3H]-acetylated histone substrate, scintillation counting). It counts as biochemical. An outline of the steps: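 Activity read as [3H]-acetic acid liberated from labeled substrate, ethyl acetate-extracted and scintillation-counted. Compounds preincubated 30 min at 4° C. with baculovirus-expressed, purified human HDAC-1. Dose-response curves give IC50 as concentration producing fifty percent of maximal inhibition.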

The next test relates to HCT116 cells. Kind of test: MTT assay. It counts as cell-based. To be noted: Homo sapiens, HCT116 cells, 72 hours. The method in brief: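 Read-out: MTT (0.5 mg/ml final, 4 h) after solubilization in 50% DMF/20% SDS, pH 4.7, with OD translated into cell number via the line's growth curve. Compound treatment lasted 72 h at 37 °C in 5% CO2, starting a day after plating.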
For orientation: Tetrazolium dyes change colour on reduction, which living cells bring about.

Test [2] relates to acetylated histone H-4 in T24 human bladder cancer cells. Nature of the test: Histone H4 acetylation in whole cells by immunoblots. It is filed as cell-based. The conditions noted are these: 16 h. An outline of the steps:
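Acetylated histone H4 was quantified by densitometry of ECL-developed immunoblots, probed with a polyclonal antibody, of […] total histone from T24 cultures exposed 16 h to HDAC inhibitors.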
A general note: Immunoblotting shows a protein as a band on a membrane.

Where [3] appears, read: Table 5F, read-out: Human HDAC-1 IC50.
Setting [4] is: T-24, Table 5F, read-out: H4 Ac (T24) EC50.
[5] abbreviates: Table 5b, read-out: Human HDAC-1 IC50.
Setting [6] is: T-24, Table 5b, read-out: H4Ac (T24) EC50.
Where [7] appears, read: Table 5d, read-out: HDAC-1 IC50.
Where [8] appears, read: T-24, Table 5d, read-out: H4Ac(T24) EC50.

Where two headings read alike, the source gives them in different places.

As a reminder, the IC50 is the point on the concentration scale where inhibition reaches its midpoint. Broadly, the EC50 is the concentration giving half of the maximal effect.

T1 sequence (Q13547 whole entry): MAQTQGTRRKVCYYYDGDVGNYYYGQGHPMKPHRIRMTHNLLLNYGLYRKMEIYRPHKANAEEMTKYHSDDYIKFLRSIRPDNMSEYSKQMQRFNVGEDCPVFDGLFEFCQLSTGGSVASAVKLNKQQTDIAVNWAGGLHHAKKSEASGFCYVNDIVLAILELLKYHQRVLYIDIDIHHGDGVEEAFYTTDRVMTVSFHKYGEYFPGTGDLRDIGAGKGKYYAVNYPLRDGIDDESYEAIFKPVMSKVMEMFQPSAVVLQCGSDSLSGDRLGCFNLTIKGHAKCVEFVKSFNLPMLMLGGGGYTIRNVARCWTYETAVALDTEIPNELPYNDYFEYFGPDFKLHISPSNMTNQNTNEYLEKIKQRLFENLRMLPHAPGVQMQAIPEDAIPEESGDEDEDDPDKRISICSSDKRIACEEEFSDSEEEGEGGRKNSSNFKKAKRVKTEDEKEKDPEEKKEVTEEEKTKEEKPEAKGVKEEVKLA

As to `Nc1ccccc1NC(=O)c1ccc(CNc2ccc3c(c2)OCO3)cc1` [Cpd 428, N-(2-Amino-phenyl)-4-(benzo[1,3]dioxol-5-ylaminomethyl)-benzamide], the half-inhibitory concentration (IC50) in test [1] (setting [3]) came to 0.7 µM; in the test on HCT116 cells (HCT-116, 72 h, Table 5F), 700 nM. For the same compound, the concentration for a half-maximal effect (EC50) in test [2] (setting [4]) is 1000 nM.
For `COc1ccccc1NCc1ccc(C(=O)Nc2ccccc2N)cc1` [Cpd 429, N-(2-Amino-phenyl)-4-[(2-methoxy-phenylamino)-methyl]-benzamide], the IC50 in test [1] (setting [3]) amounted to 4 µM; in the test on HCT116 cells (HCT-116, 72 h, Table 5F), 900 nM. In test [2] (setting [4]), the concentration for a half-maximal effect (EC50) is 1000 nM.
Turning to `COc1cccc(NCc2ccc(C(=O)Nc3ccccc3N)cc2)c1` [Cpd 430, N-(2-Amino-phenyl)-4-[(3-methoxy-phenylamino)-methyl]-benzamide], the IC50 was 5 µM in test [1] (setting [3]) and 700 nM with HCT116 cells (HCT-116, 72 h, Table 5F). Further, the EC50 in test [2] (setting [4]) was 1000 nM.
Taken in the same sequence, the figures for `Nc1ccccc1NC(=O)c1ccc(CNc2nccc(N3CCOCC3)n2)cc1` [Cpd 435, N-(2-Amino-phenyl)-4-[(4-morpholin-4-yl-pyrimidin-2-ylamino)-methyl]-benzamide] were 3 µM, 600 nM and 1000 nM.
Consider `Nc1ccccc1NC(=O)c1ccc(CNCCc2c[nH]c3ccccc23)cc1` [Cpd 436], for which the IC50 in test [1] (setting [3]) stood at 5 µM; in the test with HCT116 cells (HCT-116, 72 h, Table 5F) it was 800 nM. Further, the EC50 in test [2] (setting [4]) is 5000 nM.
For `CSc1ccc(NCc2ccc(C(=O)Nc3ccccc3N)cc2)cc1` [Cpd 437] the same measures were 3 µM, 400 nM and 1000 nM.
As for `CSc1cccc(NCc2ccc(C(=O)Nc3ccccc3N)cc2)c1` [Cpd 438, N-(2-Amino-phenyl)-4-[(3-methylsulfanyl-phenylamino)-methyl]-benzamide], the IC50 in test [1] (setting [3]) was determined as 5 µM; in the test with HCT116 cells (HCT-116, 72 h, Table 5F), 600 nM. In test [2] (setting [4]), the EC50 was found to be 1000 nM.
For `COc1ccc(-c2cc(Cl)nc(NCc3ccc(C(=O)Nc4ccccc4N)cc3)n2)cc1OC` [Cpd 439] the same measures were 3 µM, 400 nM and 1000 nM.
As to `COc1cc(NCc2ccc(C(=O)Nc3ccccc3N)cc2)c(C(C)=O)cc1OC` [Cpd 441, 4-[(2-Acetyl-4,5-dimethoxy-phenylamino)-methyl]-N-(2-amino-phenyl)-benzamide], the IC50 in test [1] (setting [3]) was 2 µM; with HCT116 cells (HCT-116, 72 h, Table 5F), 800 nM. Besides, in test [2] (setting [4]), the EC50 turned out to be 2000 nM.
For `COc1ccc(Nc2ccnc(NCc3ccc(C(=O)Nc4ccccc4N)cc3)n2)cc1OC` [Cpd 442, N-(2-Amino-phenyl)-4-{[4-(3,4-dimethoxy-phenylamino)-pyrimidin-2-ylamino]-methyl}-benzamide] the same measures were 17 µM, 400 nM and 1000 nM.
Taken in the same sequence, the figures for `CN(C)c1nc2cc(NCc3ccc(C(=O)Nc4ccccc4N)cc3)ccc2s1` [Cpd 448, N-(2-Amino-phenyl)-4-[(2-dimethylamino-benzothiazol-5-ylamino)-methyl]-benzamide] were 3 µM, 200 nM and 2000 nM.
For `Nc1ccccc1NC(=O)c1ccc(CNc2ccc3[nH]c(SCc4cccnc4)nc3c2)cc1` [Cpd 451] the same measures were 4 µM, 200 nM and 3000 nM.
For the compound `Nc1ccccc1NC(=O)c1ccc(CNc2ccc3oc(SCc4cccnc4)nc3c2)cc1` [Cpd 452, N-(2-Amino-phenyl)-4-{[2-(pyridin-3-ylmethylsulfanyl)-benzooxazol-5-ylamino]-methyl}-benzamide], the IC50 in test [1] (setting [3]) was determined as 3 µM; in the test with HCT116 cells (HCT-116, 72 h, Table 5F) it was 300 nM. In test [2] (setting [4]), the EC50 was 2000 nM.
For `COc1ccc(NCc2ccc(C(=O)Nc3cc(F)c(F)cc3N)cc2)cc1OC` [Cpd 454, N-(2-Amino-4,5-difluoro-phenyl)-4-[(3,4-dimethoxy-phenylamino)-methyl]-benzamide] the same measures were 4 µM, 2000 nM and 5000 nM.
Consider `COCCN1C(=O)c2ccc(NCc3ccc(C(=O)Nc4ccccc4N)cc3)cc2C1=O` [Cpd 458, N-(2-Amino-phenyl)-4-([2-(2-methoxy-ethyl)-1,3-dioxo-2,3-dihydro-1H-isoindol-5-ylamino]-methyl}-benzamide], for which the half-inhibitory concentration (IC50) was found to be 3 µM in test [1] (setting [3]) and 300 nM with HCT116 cells (HCT-116, 72 h, Table 5F). The EC50 in test [2] (setting [4]) stood at 2000 nM.
In the case of `CN1C(=O)C2(OCCO2)c2cc(NCc3ccc(C(=O)Nc4ccccc4N)cc3)ccc21` [Cpd 459], the IC50 in test [1] (setting [3]) is 4 µM; in the test on HCT116 cells (HCT-116, 72 h, Table 5F) it was 300 nM. Further, the EC50 in test [2] (setting [4]) came to 1000 nM.
Taken in the same sequence, the figures for `Nc1ccccc1NC(=O)c1ccc(NCCNc2ccccc2)nc1` [Cpd 460, N-(2-Amino-phenyl)-6-(2-phenylamino-ethylamino)-nicotinamide] were 3 µM, 1000 nM and 1000 nM.
For the compound `Cn1c(=O)c2cc(NCc3ccc(C(=O)Nc4ccccc4N)cc3)ccc2n(C)c1=O` [Cpd 461, N-(2-Amino-phenyl)-4-[(1,3-dimethyl-2,4-dioxo-1,2,3,4-tetrahydro-quinazolin-6-ylamino)-methyl]-benzamide], the 50% inhibitory concentration (IC50) in test [1] (setting [3]) came to 1.4 µM; in the test on HCT116 cells (HCT-116, 72 h, Table 5F), 300 nM. Also, the EC50 in test [2] (setting [4]) was found to be 1000 nM.
Turning to `Cn1c2ccc(NCc3ccc(C(=O)Nc4ccccc4N)cc3)cc2c2nc3ccccc3nc21` [Cpd 462], the IC50 in test [1] (setting [3]) stood at 4 µM; in the test with HCT116 cells (HCT-116, 72 h, Table 5F), 300 nM. For the same compound, the EC50 in test [2] (setting [4]) was determined as 1000 nM.
`Nc1ccccc1NC(=O)c1ccc(-c2ccc(CNCc3ccccn3)s2)cc1` [Cpd 466]: the IC50 in test [1] (setting [3]) amounted to 3 µM; with HCT116 cells (HCT-116, 72 h, Table 5F) it was 2000 nM. In addition, in test [2] (setting [4]), the EC50 amounted to 1000 nM.
Take `Nc1ccccc1NC(=O)c1ccc(CNc2ncc(Br)s2)cc1` [Cpd 467, N-(2-Amino-phenyl)-4-[(5-bromo-thiazol-2-ylamino)-methyl]-benzamide]: the IC50 in test [1] (setting [3]) is 4 µM; in the test with HCT116 cells (HCT-116, 72 h, Table 5F), 400 nM. In addition, the EC50 in test [2] (setting [4]) was found to be 2000 nM.
As for `Nc1ccccc1NC(=O)c1ccc(CNc2cc(-c3ccccc3)[nH]n2)cc1` [Cpd 468, N-(2-Amino-phenyl)-4-[(5-phenyl-1H-pyrazol-3-ylamino)-methyl]-benzamide], the IC50 in test [1] (setting [3]) worked out at 2 µM; in the test with HCT116 cells (HCT-116, 72 h, Table 5F), 8000 nM. Further, the EC50 in test [2] (setting [4]) was less than 1000 nM.
Regarding `Nc1nc(NCCCc2ccccc2)nc(NCc2ccc(C(=O)Nc3ccccc3N)cc2)n1` [Cpd 470], the IC50 was found to be 2 µM in test [1] (setting [5]) and 700 nM in the test on HCT116 cells (HCT-116, 72 h, Table 5b). Also, the concentration for a half-maximal effect (EC50) in test [2] (setting [6]) worked out at 3000 nM.
With `Nc1ccccc1NC(=O)c1ccc(CNc2nc(NCCc3ccccc3)nc(NC3CC3)n2)cc1` [Cpd 471], the IC50 in test [1] (setting [5]) came out at 0.4 µM; in the test with HCT116 cells (HCT-116, 72 h, Table 5b) it was 1000 nM. Also, the EC50 in test [2] (setting [6]) was determined as 3000 nM.
Taken in the same sequence, the figures for `Nc1ccccc1NC(=O)c1ccc(CNc2nc(NCC3CC3)nc(NC3Cc4ccccc4C3)n2)cc1` [Cpd 472] were 3 µM, 1000 nM and 1000 nM.
On to `COCCNc1nc(NCCc2ccccc2)nc(NCc2ccc(C(=O)Nc3ccccc3N)cc2)n1` [Cpd 474], for which the IC50 in test [1] (setting [5]) was determined as 3 µM; in the test on HCT116 cells (HCT-116, 72 h, Table 5b), 1000 nM. In addition, the EC50 in test [2] (setting [6]) was 1000 nM.
Take `COc1ccc(CCNc2nc(NCc3ccc(C(=O)Nc4ccccc4N)cc3)nc(NC3CC3)n2)cc1` [Cpd 476]: the IC50 in test [1] (setting [5]) came to 2 µM; in the test on HCT116 cells (HCT-116, 72 h, Table 5b) it was 1000 nM. For the same compound, in test [2] (setting [6]), the EC50 came to 2000 nM.
As to `COc1cc(OC)nc(NCc2ccc(/C=C/C(=O)Nc3ccccc3N)cc2)n1` [Cpd 492, N-(2-Amino-phenyl)-3-{4-[(4,6-dimethoxy-pyrimidin-2-ylamino)-methyl]-phenyl}-acrylamide], the IC50 in test [1] (setting [7]) worked out at 4 µM; in the test on HCT116 cells (HCT-116, Table 5d), 9000 nM. Besides, the EC50 in test [2] (setting [8]) was found to be 10000 nM.
For `COc1cc(N(Cc2ccc(/C=C/C(=O)Nc3ccccc3N)cc2)Cc2cc3ccccc3[nH]2)cc(OC)c1OC` [Cpd 499, N-(2-Amino-phenyl)-3-{4-([(1 H-indol-2-ylmethyl)-(3,4,5-trimethoxy-phenyl)-amino]-methyl}-phenyl)-acrylamide] the same measures were greater than 25 µM, 2000 nM and greater than 25000 nM.
For the compound `COc1cc(NC(C)c2ccc(/C=C/C(=O)Nc3ccccc3N)cc2)cc(OC)c1OC` (stereo not drawn) [Cpd 518, N-(2-Amino-phenyl)-3-{4-[1-(3,4,5-trimethoxy-phenylamino)-ethyl]-phenyl}-acrylamide], the IC50 in test [1] (setting [7]) stood at 4 µM; in the test with HCT116 cells (HCT-116, Table 5d), 2000 nM. Also, in test [2] (setting [8]), the EC50 worked out at 5000 nM.
Taken in the same sequence, the figures for `Nc1ccccc1NC(=O)/C=C/c1ccc(NCCNc2ncccn2)nc1` [Cpd 521, N-(2-Amino-phenyl)-3-{6-[2-(pyrimidin-2-ylamino)-ethylamino]-pyridin-3-yl}-acrylamide] were 5 µM, 2000 nM and 10000 nM.
Turning to `COc1cc(N(CCN2CCOCC2)Cc2ccc(/C=C/C(=O)Nc3ccccc3N)cc2)cc(OC)c1OC` [Cpd 523, N-(2-Amino-phenyl)-3-(4-{[(2-morpholin-4-yl-ethyl)-(3,4,5-trimethoxy-phenyl)-amino]-methyl}-phenyl)-acrylamide], the IC50 in test [1] (setting [7]) came to 8 µM; in the test with HCT116 cells (HCT-116, Table 5d), 6000 nM. For the same compound, the EC50 in test [2] (setting [8]) was found to be 10000 nM.
